Here are results for 12 compounds from publication PMC5535261 (Journal of Medicinal Chemistry, 2017).

Data set [1] in a line: Mouse liver microsome stability. Conditions: for T1/2 (min) no NADPH / half-life: mouse liver microsomes; for microsomal CLint / half-life: mouse, microsomes.
The nature of another data set: physchem. The settings on record: pH 7.4.
The test system of data set [2] is P. berghei-infected female Swiss Webster mice. The settings on record: oral; for 50% curative dose (PD50): free bases, 4 daily doses, estimated from dose–efficacy study (Table 3); for mouse survival extended compared to vehicle-treated control animals: one or two daily doses of 4 mg/kg.
Data set [3] relates to W2 P. falciparum parasites. Kind of data set: Plasmodium falciparum growth inhibition assay. Conditions: 12f vs 2f.
In data set [4] the test system is similar models (P. berghei-infected mice). The settings on record: single dose 20 mg/kg; cited from earlier work.
Where [5] appears, read: T1/2 (min), half-life when incubated with mouse liver microsomes.

In brackets after ≈: the same amount, converted by molar mass.

For orientation: kinetic solubility means the concentration staying in solution when a stock, usually in DMSO, is diluted into the medium. As to `CC(C)(N)CNC(=O)C[C@H]1CC[C@]2(CC1)OO[C@]1(O2)C2CC3CC(C2)CC1C3` [2a, arterolane, reference compound], the “T1/2 (min) no NADPH” value in data set [1] (no NADPH) is “stable”. The compound also displayed a kinetic solubility in “physchem” of 433 µM (≈ 170 µg/mL). Moreover, the “50% curative dose (PD50)” value in data set [2] is approximately 4 mg kg^–1 day^–1.
Turning to `NC(=O)CNC(=O)C[C@H]1CC[C@]2(CC1)OO[C@]1(O2)C2CC3CC(C2)CC1C3` [2b, reference compound], in data set [1] (no NADPH), the “T1/2 (min) no NADPH” value is “stable”.
Turning to `CC(C)(CN)CNC(=O)C[C@H]1CC[C@]2(CC1)OO[C@]1(O2)C2CC3CC(C2)CC1C3` [2d, reference compound], the “T1/2 (min) no NADPH” value in data set [1] (no NADPH) is on record as “stable”.
Consider `NC1CCN(C(=O)C[C@H]2CC[C@]3(CC2)OO[C@]2(O3)C3CC4CC(C3)CC2C4)CC1` [2i, reference compound], for which the “T1/2 (min) no NADPH” value in data set [1] (no NADPH) is listed as “stable”.
The term microsomal CLint denotes a measure of how fast metabolising enzymes remove a compound, apart from limits set by blood flow. The half-life is how long it takes for the measured level to halve. Higher therefore signals slow decline. As for `CC(C)(N)CNC(=O)C[C@@H]1CCC[C@]2(C1)OOC1(O2)C2CC3CC(C2)CC1C3` (stereo partly drawn) [12a], the “T1/2 (min) no NADPH” value in data set [1] (no NADPH) was “stable”. In data set [1], this compound gave an intrinsic metabolic clearance (microsomal CLint) of 4.1 µL/min/mg. Further, the half-life in data set [1] (setting [5]) was found to be 2.82 h. In “physchem”, this compound gave a kinetic solubility of 429 µM (≈ 168 µg/mL). The “50% curative dose (PD50)” value in data set [2] is approximately 6 mg kg^–1 day^–1.
Take `NC(=O)CNC(=O)C[C@@H]1CCC[C@]2(C1)OOC1(O2)C2CC3CC(C2)CC1C3` (stereo partly drawn) [12b]: in data set [1] (no NADPH), the “T1/2 (min) no NADPH” value is “stable”. Moreover, the microsomal CLint in data set [1] was found to be 18.6 µL/min/mg. In data set [1] (setting [5]), the half-life worked out at 0.622 h.
Regarding `NCCNC(=O)C[C@@H]1CCC[C@]2(C1)OOC1(O2)C2CC3CC(C2)CC1C3` (stereo partly drawn) [12c], in data set [1], the microsomal CLint is 8.2 µL/min/mg. The half-life in data set [1] (T1/2 (min) no NADPH, no NADPH) is 2.27 h; in data set [1] (setting [5]) it was 1.41 h. For the same compound, the “mouse survival extended compared to vehicle-treated control animals” value in data set [2] lay within 3 to 6 days.
`CC(C)(CN)CNC(=O)C[C@@H]1CCC[C@]2(C1)OOC1(O2)C2CC3CC(C2)CC1C3` (stereo partly drawn) [12d]: the “T1/2 (min) no NADPH” value in data set [1] (no NADPH) is listed as “stable”. In data set [1], this compound came in with a microsomal CLint of 10.8 µL/min/mg. The half-life in data set [1] (setting [5]) is 1.07 h.
As for `O=C(C[C@@H]1CCC[C@]2(C1)OOC1(O2)C2CC3CC(C2)CC1C3)N1CCOCC1` (stereo partly drawn) [12f], in data set [3], the “fold more potent than cis-4″ regioisomer 2f (EC50, W2)” value was determined as 3 fold.
In the case of `O=C(C[C@@H]1CCC[C@]2(C1)OOC1(O2)C2CC3CC(C2)CC1C3)N1CCNCC1` (stereo partly drawn) [12g], the “T1/2 (min) no NADPH” value in data set [1] (no NADPH) is listed as “stable”. In addition, the intrinsic clearance (microsomal CLint) in data set [1] was determined as 27.2 µL/min/mg. This compound returned a half-life in data set [1] (setting [5]) of 0.425 h.
As to `NC1CCN(C(=O)C[C@@H]2CCC[C@]3(C2)OOC2(O3)C3CC4CC(C3)CC2C4)CC1` (stereo partly drawn) [12i], the “T1/2 (min) no NADPH” value in data set [1] (no NADPH) was “stable”. Besides, the microsomal CLint in data set [1] came to 8.2 µL/min/mg. Further, in data set [1] (setting [5]), the half-life was determined as 1.41 h. Besides, the “mouse survival extended compared to vehicle-treated control animals” value in data set [2] lay within 3 to 6 days.
Consider `c1cc([C@H]2CC[C@]3(CC2)OO[C@]2(O3)C3CC4CC(C3)CC2C4)ccc1OCCN1CCOCC1` [compound 3, artefenomel], for which the single-dose efficacy result in data set [4] was “single-dose cures”.
